Data from US8835470B2, “Mandelamide heterocyclic compounds” (Bristol-Myers Squibb Company, priority 2010, dated 2014).
pEC50, pIC50: −log10 of the molar value. Where a name gives a salt, the structure may show the parent alone.

Key:
circulating lymphocytes = assay: Blood Lymphocyte Reduction Assay (BLR) in Rodents; type: in vivo; conditions: Rattus norvegicus, Lewis rats, oral, 4 hr, vs vehicle group
Method: Blood Lymphocyte Reduction Assay (BLR) in Rodents
Lewis rats were dosed orally with test article (as a solution or suspension in the vehicle) or vehicle alone (polyethylene glycol 300, “PEG300”). Blood was drawn at 4 hr by retro-orbital bleeding. Blood lymphocyte counts were determined on an ADVIA® 120 Hematology Analyzer (Siemens Healthcare Diagnostics). The results were measured as a reduction in the percentage of circulating lymphocytes as compared to the vehicle treated group at the 4 hr measurement. The results represent the average results of all animals within each treatment group (n=3-4).
The following examples were tested in the Blood Lymphocyte Reduction assay (BLR) described hereinabove and the results are shown in Table D for rats.

S1P3 = S1P3 (Homo sapiens (Human), UniProt Q99500); assay: Receptor [35S] GTPγS Binding Assay, S1P3; type: biochemical; conditions: membranes from EDG3-Ga15-bla HEK293T cells; * detection limit 62,500 nM, ** detection limit 32,500 nM
Sequence of S1P3 (Q99500 whole entry): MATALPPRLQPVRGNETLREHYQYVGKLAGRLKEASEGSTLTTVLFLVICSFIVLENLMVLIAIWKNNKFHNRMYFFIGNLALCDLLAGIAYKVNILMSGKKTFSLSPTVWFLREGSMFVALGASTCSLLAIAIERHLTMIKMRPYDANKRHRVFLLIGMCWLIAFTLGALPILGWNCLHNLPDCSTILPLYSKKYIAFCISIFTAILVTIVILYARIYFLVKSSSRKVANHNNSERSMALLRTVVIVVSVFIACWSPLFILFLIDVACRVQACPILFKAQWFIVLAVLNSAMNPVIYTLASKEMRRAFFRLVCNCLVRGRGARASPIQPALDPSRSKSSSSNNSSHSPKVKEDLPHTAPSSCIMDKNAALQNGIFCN
Method: (§1) Receptor [35S] GTPγS Binding Assays
(§2) Compounds were loaded in a 384 FALCON® v-bottom plate (0.5 μl/well in a 3-fold dilution). Membranes prepared from S1P1/CHO cells or EDG3-Ga15-bla HEK293T cells were added to the compound plate (40 μl/well, final protein 3 μg/well) with MULTIDROP®. [^35S]GTP (1250 Ci/mmol, Perkin Elmer) was diluted in assay buffer: 20 mM HEPES, pH7.5, 10 mM MgCl2, 150 mM NaCl, 1 mM EGTA, 1 mM DTT, 10 μM GDP, 0.1% fatty acid free BSA, and 10 μg/ml Saponin to 0.4 nM. 40 μl of the [^35S] GTP solution was added to the compound plate with a final concentration of 0.2 nM. The reaction was kept at room temperature for 45 min. At the end of incubation, all the mixtures in the compound plate were transferred to a 384 well FB filter plates via GPCR robot system. The filter plate was washed with water 4 times by using the modified manifold Embla plate washer and dried at 60° C. for 45 min. 30 μl of MicroScint 20 scintillation fluid was added to each well for counting at Packard TOPCOUNT®. EC50 is defined as the agonist concentration that corresponds to 50% of the Ymax (maximal response) obtained for each individual compound tested.
A smaller value for GTPγS S1P1 EC50 value indicated greater activity for the compound in the GTPγS S1P1 binding assay. A larger value for the GTPγS S1P3 EC50 value indicated less activity in the GTPγS S1P3 binding assay.

S1P1 [1] = molecular target: T1, S1P1 (Homo sapiens (Human), UniProt P21453); assay: S1P1 Binding Assay; conditions: membranes from CHO cells expressing human S1P1; 33P-S1P ligand; rounded to two digits
T1 sequence (P21453 whole entry): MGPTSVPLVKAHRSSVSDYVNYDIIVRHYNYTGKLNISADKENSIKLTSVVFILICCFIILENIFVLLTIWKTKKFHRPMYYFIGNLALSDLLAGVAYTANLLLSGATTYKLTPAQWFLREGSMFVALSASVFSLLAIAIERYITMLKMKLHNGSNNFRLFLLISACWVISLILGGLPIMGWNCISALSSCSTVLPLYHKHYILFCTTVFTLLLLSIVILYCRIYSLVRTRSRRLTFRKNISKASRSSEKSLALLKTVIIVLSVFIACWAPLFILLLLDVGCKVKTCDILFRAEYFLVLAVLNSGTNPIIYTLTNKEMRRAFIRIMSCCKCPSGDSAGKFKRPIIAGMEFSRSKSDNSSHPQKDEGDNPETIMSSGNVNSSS
Method: Membranes were prepared from CHO cells expressing human S1P1. Cells were dissociated in buffer containing 20 mM HEPES, pH 7.5, 50 mM NaCl, 2 mM EDTA and Protease Inhibitor cocktail (Roche), and disrupted on ice using the Polytron homogenizer. The homogenate was centrifuged at 20,000 rpm (48,000 G) and the supernatant was discarded. The membrane pellets were resuspended in buffer containing 50 mM HEPES, pH 7.5, 100 mM NaCl, 1 mM MgCl2, 2 mM EDTA and stored in aliquots at −80° C. after protein concentration determination. Membranes (2 μg/well) and 0.03 nM final concentration of ^33P-S1P ligand (1 mCi/ml, American Radiolabeled Chemicals) were added to the compound plates. Binding was performed for 45 minutes at room temperature, terminated by collecting the membranes onto GF/B filter plates, and radioactivity was measured by TOPCOUNT®. The competition data of the test compounds over a range of concentrations was plotted as percentage inhibition of radioligand specific binding. The IC50 is defined as the concentration of competing ligand needed to reduce specific binding by 50%.
The results in Table A were rounded to two digits.

S1P1 [2] = molecular target: T1, S1P1; assay: Receptor [35S] GTPγS Binding Assay, S1P1; type: biochemical; conditions: for pEC50: membranes from S1P1/CHO cells, [35S]GTP; for GTPγS S1P3/S1P1: ratio of GTPγS S1P3 EC50 to GTPγS S1P1 EC50, * and ** S1P3 value at detection limit
Method: as §1
as §2, with “Membranes” for “Compounds were loaded in a 384 FALCON® v-bottom plate (0.5 μl/well in a 3-fold dilution). Membranes”, “TOPCOUNT®.” for “TOPCOUNT®. EC50 is defined as the agonist concentration that corresponds to 50% of the Ymax (maximal response) obtained for each individual compound tested.”
A larger value for the GTPγS S1P3 EC50 value indicated less activity in the GTPγS S1P3 binding assay.

Row | pEC50 (S1P3) | pIC50 (S1P1 [1]) | pEC50 (S1P1 [2]) | GTPγS S1P3/S1P1 (S1P1 [2]) | SMILES | inhibition in vivo at 3 mg/kg (circulating lymphocytes) | inhibition in vivo at 1 mg/kg (circulating lymphocytes)
1 | 5.50 | 9.34 | 9.17 | 4679 | CC(C)(O)CNC(=O)CCNC(=O)C(O)c1ccc(-c2noc(-c3onc(-c4ccccc4)c3C(F)(F)F)n2)cc1 (single isomer, unassigned) [Example 6, 3-(2-Hydroxy-2-(4-(5-(3-phenyl-4-(trifluoromethyl)isoxazol-5-yl)-1,2,4-oxadiazol-3-yl)phenyl)acetamido)-N-(2-hydroxy-2-methylpropyl)propanamide] | 73% | 
2 | 5.02 | 8.35 | 7.92 | 802 | O=C(NC1CCS(=O)(=O)C1)C(O)c1ccc(-c2noc(-c3onc(-c4ccccc4)c3C(F)(F)F)n2)cc1 (centres unmarked) [Example 31, 2-Hydroxy-2-(4-(5-(3-phenyl-4-(trifluoromethyl)isoxazol-5-yl)-1,2,4-oxadiazol-3-yl)phenyl)-N-(3,3-dioxide-tetrahydrothiophen-3-yl)acetamide] |  | 54%
3 | 4.98 | 9.07 | 8.70 | 5234 | O=C(NCCO)C(O)c1ccc(-c2noc(-c3onc(-c4ccccc4)c3C(F)(F)F)n2)cc1 (single isomer, unassigned) [Example 71, 2-Hydroxy-N-(2-hydroxyethyl)-2-(4-(5-(3-phenyl-4-(trifluoromethyl)isoxazol-5-yl)-1,2,4-oxadiazol-3-yl)phenyl)acetamide] |  | 71%
4 |  |  |  |  | C[C@@H](C#N)NC(=O)C(O)c1ccc(-c2noc(-c3onc(-c4ccccc4)c3C(F)(F)F)n2)cc1 (stereo partly drawn) [Example 40, N-((S)-1-Cyanoethyl)-2-hydroxy-2-(4-(5-(3-phenyl-4-(trifluoromethyl)isoxazol-5-yl)-1,2,4-oxadiazol-3-yl)phenyl)acetamide] |  | 80%
5 | 5.44 | 8.59 | 7.80 | 232 | N#CC1(NC(=O)C(O)c2ccc(-c3noc(-c4onc(-c5ccccc5)c4C(F)(F)F)n3)cc2)CC1 (single isomer, unassigned) [Example 41, N-(1-Cyanocyclopropyl)-2-hydroxy-2-(4-(5-(3-phenyl-4-(trifluoromethyl)isoxazol-5-yl)-1,2,4-oxadiazol-3-yl)phenyl)acetamide] |  | 80%
6 | 4.92 | 8.54 | 8.24 | 2060 | O=C(NCCC(=O)N1CC(O)C1)C(O)c1ccc(-c2noc(-c3onc(-c4ccccc4)c3C(F)(F)F)n2)cc1 (racemic) [Example 93, (R/S)-2-Hydroxy-N-(3-(3-hydroxyazetidin-1-yl)-3-oxopropyl)-2-(4-(5-(3-phenyl-4-(trifluoromethyl)isoxazol-5-yl)-1,2,4-oxadiazol-3-yl)phenyl)acetamide] | 73% | 
7 | 5.23 | 7.54 | 6.99 | 58 | O=C(NCC1CCCN1)C(O)c1ccc(-c2noc(-c3onc(-c4ccccc4)c3C(F)(F)F)n2)cc1 (racemic) [Example 88, (R/S)-2-Hydroxy-2-(4-(5-(3-phenyl-4-(trifluoromethyl)isoxazol-5-yl)-1,2,4-oxadiazol-3-yl)phenyl)-N-(pyrrolidin-2-ylmethyl)acetamide, TFA] |  | 
8 | 5.46 | 9.52 | 8.72 | 1805 | CN(C)C(=O)CCNC(=O)C(O)c1ccc(-c2noc(-c3onc(-c4ccccc4)c3C(F)(F)F)n2)cc1 (single isomer, unassigned) [Example 74, 3-(2-Hydroxy-2-(4-(5-(3-phenyl-4-(trifluoromethyl)isoxazol-5-yl)-1,2,4-oxadiazol-3-yl)phenyl)acetamido)-N,N-dimethylpropanamide] | 84% | 
9 | 4.96 | 8.31 | 7.38 | 267 | O=C(NCc1ccccn1)C(O)c1ccc(-c2noc(-c3cnn(-c4ccccc4)c3C(F)(F)F)n2)cc1 (racemic) [Example 137, (R/S)-2-hydroxy-2-(4-(5-(1-phenyl-5-(trifluoromethyl)-1H-pyrazol-4-yl)-1,2,4-oxadiazol-3-yl)phenyl)-N-(pyridin-2-ylmethyl)acetamide] |  | 
10 | 5.16 | 8.17 | 8.17 | 1031 | O=C(NCc1ncc[nH]1)C(O)c1ccc(-c2noc(-c3onc(-c4ccccc4)c3C(F)(F)F)n2)cc1 (single isomer, unassigned) [Example 17, N-((1H-Imidazol-2-yl)methyl)-2-hydroxy-2-(4-(5-(3-phenyl-4-(trifluoromethyl)isoxazol-5-yl)-1,2,4-oxadiazol-3-yl)phenyl)acetamide-TFA] | 69% | 
